The source of these data is BindingDB's records for doi:10.1021/np049624z (Harvard Medical School, 2005).

The test concerns the target Forkhead box protein O1 (Homo sapiens, UniProt Q12778). Kind of test: Inhibition of FOXO1a nuclear export in PTEN-deficient cells.

Molecules are shown by their SMILES.

Sequence of Forkhead box protein O1 (Q12778 whole entry): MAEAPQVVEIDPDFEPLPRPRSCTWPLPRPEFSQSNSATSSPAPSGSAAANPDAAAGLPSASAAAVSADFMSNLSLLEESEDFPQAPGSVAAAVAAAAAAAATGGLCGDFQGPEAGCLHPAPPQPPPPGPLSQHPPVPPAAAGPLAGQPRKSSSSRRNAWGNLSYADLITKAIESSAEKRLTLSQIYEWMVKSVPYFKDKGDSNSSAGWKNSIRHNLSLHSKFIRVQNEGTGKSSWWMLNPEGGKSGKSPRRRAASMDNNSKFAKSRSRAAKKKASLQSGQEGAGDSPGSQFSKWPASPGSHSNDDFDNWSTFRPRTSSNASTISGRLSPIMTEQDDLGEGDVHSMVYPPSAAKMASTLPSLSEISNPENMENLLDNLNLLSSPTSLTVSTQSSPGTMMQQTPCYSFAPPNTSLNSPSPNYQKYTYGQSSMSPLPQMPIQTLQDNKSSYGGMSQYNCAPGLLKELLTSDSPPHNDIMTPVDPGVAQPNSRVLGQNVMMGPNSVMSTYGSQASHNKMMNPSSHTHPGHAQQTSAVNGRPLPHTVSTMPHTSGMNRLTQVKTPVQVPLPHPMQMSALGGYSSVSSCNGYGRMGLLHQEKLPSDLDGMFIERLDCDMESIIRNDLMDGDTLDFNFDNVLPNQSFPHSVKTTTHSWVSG

Take `CN(C)CCCOc1c(Br)cc(/C=C/C(=O)NCCCOc2c(Br)cc(CCN(C)C)cc2Br)cc1Br` [psammaplysene A]: the half-inhibitory concentration (IC50) was determined as 5 µM.

In turn, `CNCCCOc1c(Br)cc(/C=C/C(=O)NCCCOc2c(Br)cc(CCN(C)C)cc2Br)cc1Br` [psammaplysene B] had an IC50 of 20 µM.
